Consider one compound from patent US20130065792A1, “INDUCIBLE EXPRESSION OF SGLT5, METHODS AND KITS USING THE SAME” (BOEHRINGER INGELHEIM INTERNATIONAL GMBH, priority 2011, published 2013).

Holding throughout (assay type): cell-based
Experiment [1] has as its target T1, SGLT5 (Homo sapiens, UniProt A0PJK1).
T1 construct: expressed in transfected cells; host or cells: T-Rex 293 cells (Invitrogen), stably transfected with pT-Rex-Dest30-hSGLT5; expression induced with tetracycline; deposited clone DSM ACC3096
T1 sequence (A0PJK1 1-596): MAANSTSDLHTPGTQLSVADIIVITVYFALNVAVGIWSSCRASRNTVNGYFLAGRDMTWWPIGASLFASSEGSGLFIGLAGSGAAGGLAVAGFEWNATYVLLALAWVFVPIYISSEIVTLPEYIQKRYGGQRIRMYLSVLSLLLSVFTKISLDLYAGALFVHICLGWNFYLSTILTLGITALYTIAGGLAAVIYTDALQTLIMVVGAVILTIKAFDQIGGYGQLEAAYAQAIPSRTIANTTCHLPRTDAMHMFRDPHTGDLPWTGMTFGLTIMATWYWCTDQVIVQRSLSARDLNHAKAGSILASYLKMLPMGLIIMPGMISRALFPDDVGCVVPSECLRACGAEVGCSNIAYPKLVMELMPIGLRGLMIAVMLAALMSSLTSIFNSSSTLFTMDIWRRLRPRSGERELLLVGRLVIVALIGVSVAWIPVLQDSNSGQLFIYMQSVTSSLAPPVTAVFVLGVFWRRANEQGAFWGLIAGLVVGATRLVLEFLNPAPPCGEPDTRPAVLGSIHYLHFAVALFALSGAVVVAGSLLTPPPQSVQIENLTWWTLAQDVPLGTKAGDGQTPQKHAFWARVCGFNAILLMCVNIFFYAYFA
As to the kind of experiment: Uptake of C14-labeled galactose in HEK/293 cells constitutively expressing SGLT5 (Reference Example). To be noted: galactose 0.1 mM; constitutive expression; called unreliable. The method, then: [^14C]-saccharide uptake experiments: 30000 cells per well were seeded in white poly-D-lysine-coated 96-well plates and incubated over night. The expression of hSGLT5 was induced 24 h before the start of uptake experiments by the addition of 1 μg/ml tetracycline to the cells. For the assay, cells were washed twice with 250 μl pre-treatment buffer [140 mM cholinchloride in basal buffer (10 mM HEPES; 5.4 mM KCl; 2.8 mM CaCl2*2 H2O; 1.2 mM MgSO4*7 H2O; 0.1% BSA, pH 7.4) and incubated in 200 μl pre-treatment buffer for 25 min at 37° C. […] The lysate was mixed with 200 μl MikroScint 40 Scintillator, shaken for 15 min and counted for radioactivity in the TopCount NXT (Canberra Packard, Schwadorf, Austria). Specific sugar uptake was determined by subtracting non-specific uptake of each sugar (in the presence of choline chloride) from total uptake of the same sugar (in the presence of sodium chloride). […]

Experiment [2] addresses T1, SGLT5. As to the kind of experiment: Time dependent specific uptake of [14C]-monosaccharides by T-Rex 293-hSGLT5 cells (FIG. 3). To be noted: 1 mM monosaccharide, 5-60 min, tetracycline induced T-Rex 293-hSGLT5 cells. The method, then:
[^14C]-saccharide uptake experiments: 30000 cells per well were seeded in white poly-D-lysine-coated 96-well plates and incubated over night. The expression of hSGLT5 was induced 24 h before the start of uptake experiments by the addition of 1 μg/ml tetracycline to the cells. For the assay, cells were washed twice with 250 μl pre-treatment buffer [140 mM cholinchloride in basal buffer (10 mM HEPES; 5.4 mM KCl; 2.8 mM CaCl2*2 H2O; 1.2 mM MgSO4*7 H2O; 0.1% BSA, pH 7.4) and incubated in 200 μl pre-treatment buffer for 25 min at 37° C. Pre-treatment buffer was removed and 200 μl uptake buffer was added to the cells (140 mM NaCl in basal buffer containing 1 mM cold monosaccharide [either glucose, fructose, mannose, galactose or alphamethyl glucopyranoside (AMG), respectively]+0,6 μCi [^14C]-labelled monosaccharide [either glucose, fructose, mannose, galactose or alpha-methyl glucopyranoside (AMG), respectively] (Hartmann Analytics, Mannheim, Germany) and 10 μM Cytochalasin B. After incubation for 5, 10, 30 and 60 minutes at 37° C., the cells were washed three times with 300 μl PBS (Cambrex, Verviers, Belgium) and then lysed in 0.1 N NaOH with intermittent shaking for 5 min. The lysate was mixed with 200 μl MikroScint 40 Scintillator, shaken for 15 min and counted for radioactivity in the TopCount NXT (Canberra Packard, Schwadorf, Austria). Specific sugar uptake was determined by subtracting non-specific uptake of each sugar (in the presence of choline chloride) from total uptake of the same sugar (in the presence of sodium chloride).
Furthermore, a protocol was established to measure the specific uptake of monosaccharides e.g. mannose, fructose, glucose, AMG and galactose by hSGLT5, It could be shown that the transporter takes up mannose and fructose with high affinity and hardly transports glucose, AMG and galactose (FIG. 3). […] Specific uptake was calculated by subtracting the respective monosaccharide uptake in the presence of choline chloride from the total uptake of the same monosaccharide in the presence of sodium chloride.

In experiment [3] the target is T1, SGLT5. The experiment in a line: Competitive assay to inhibit C14-labeled AMG uptake into transfected HEK cells (Reference Example). The conditions noted are these: constitutive expression; called unreliable. How it is done: SGLT5 was cloned as described in Example 1. However, instead of using the inducible pT-Rex-Dest30 plasmid the sequence was inserted into the expression plasmid pcDNA3.1/V5-His for constitutive expression. Using lipofection HEK/293 cells (ATCC) were stably transfected. The expression plasmid contained resistance to geneticin as a selection marker. The cells were cultivated in DMEM with 10% FCS and […] geneticin for selecting transfected cells. Expression was tested by RT-PCR.
Furthermore, cells were tested for uptake of C^14-labeled galactose in an assay as described in Example 1. […] In addition, a competitive assay to inhibit C^14-labeled AMG uptake into the transfected HEK cells was performed.

In experiment [4] the target is T1, SGLT5. As to the kind of experiment: FLIPR membrane potential assay in HEK/293 cells constitutively expressing SGLT5 (Reference Example). To be noted: constitutive expression; results later called unreliable and irreproducible. How it is done:
FLIPR assay: Changes in membrane potential can be assayed using the FLIPR TETRA Assay (Molecular Devices). In this method cells are loaded with a fluorescent dye, which emits light of a different wavelength dependent on the membrane potential. This can be recorded in suitable cell culturing plates and monitored over time in the presence/absence of a test substance.
10.000 to 30.000 cells were seeded in a 384 well plate (black, lysine coated with transparent bottom, Becton Dickinson) and were incubated over night at 37° C. and 5% CO2. The next day they were washed twice with 50 μl assay buffer (140 mM NaCl; 1.26 mM CaCl2; 0.49 mM MgCl2*6 H2O; 0.41 mM MgSO4*7 H2O; 5.33 mM KCl; 0.44 mM KH2PO4−pH =7.4). […]
After starting the measurement ten sample points were assayed at intervals of 3 seconds. Thereafter […] of the dissolved test substances (e.g. monosaccharide and/or KCl) were added and 30 measurements were recorded in 3-second intervals, thereafter 16 measurements were recorded in 15-second intervals. […]
Cells showing strong expression by PCR were subcloned and propagated. […] According to the fluorescence signal induced by KCl a number of 30,000 cells/well was determined to provide the highest fluorescence signal. […] Thereafter cells were exposed to glucose, galactose, fructose, AMG or mannose in different concentrations and changes in fluorescence were recorded as described in Example 1. […]

In the case of `O=C[C@H](O)[C@@H](O)[C@@H](O)[C@H](O)CO` [galactose], the “uptake signal relative to the negative control (absolute cpm)” value at SGLT5 [1] was “approximately 3 fold”. In addition, the “specific uptake / affinity for hSGLT5 (in words)” value at SGLT5 [2] is reported as “very low affinity”. Also, at SGLT5 [3], the “inhibitory effect on C14-labeled AMG uptake (in words)” value is “highest inhibitory effect”. Moreover, the “signal for depolarisation (FLIPR, in words)” value at SGLT5 [4] is reported as “strongest signal for depolarisation”.
